In patent US7807350B2 (The University of Chicago, priority 2003, dated 2010):
Where two headings read alike, the source gives them in different places.

How the values were obtained:
[1] = relative to irinotecan; cited from earlier work
[2] = Pharmacokinetic analysis of plasma irinotecan, SN-38 and SN-38G in patients, by TA indel genotype; format: in vivo, human; settings: for SN-38 AUC (mean) / SN-38G AUC (mean): after irinotecan
Experimental: Samples of 7 ml were collected into green top sodium heparinized Vacutainer® tubes prior to the infusion; 30, 60, and 90 minutes during the infusion; and 10, 20, 30, 45, and 60 minutes and 1.5, 2, 4, 6, 12, and 24 hours after the infusion. Samples were centrifuged (2500 rpm, 20 min, 4° C.) and the plasma was immediately separated, transferred as two aliquots into storage tubes, frozen at −80° C. until analysis.

[3] = cited from earlier work
[4] = Toxicity (neutropenia, diarrhea, toxic death) in cycle 1 of irinotecan 350 mg/m2 every 3 weeks in cancer patients, by UGT1A1 genotype; settings: for frequency of grade 4 neutropenia: cycle 1
[5] = Objective tumor response in the irinotecan 350 mg/m2 every 3 weeks trial; format: in vivo, human
Experimental: History, physical examination, complete blood count (CBC) with differential, serum chemistry profile (electrolytes, blood urea nitrogen, creatinine, glucose, albumin, alkaline phosphatase, GGTP, AST, ALT, total and conjugated bilirubin, uric acid, and lactate dehydrogenase), and coagulation profile (prothrombin time and partial thromboplastin time) were conducted prior to first treatment. Thereafter, history, physical examination, and toxicity assessment were conducted on day 1 of each cycle unless treatment-related toxicity required more frequent follow up. CBC and serum chemistry profile were obtained weekly throughout treatment, though CBCs were obtained 3 times per week with the appearance of grade 3 or 4 neutropenia or thrombocytopenia. Toxicity assessment was done according to the NCI common toxicity criteria, version 2.0 (website: ctep.cancer.gov). Objective tumor assessment by appropriate radiographic imaging was performed prior to starting therapy and after every 2 cycles.

[6] = 6/6 TA indel genotype, 30 patients
[7] = 6/7 TA indel genotype, 25 patients
[8] = 7/7 TA indel genotype, 6 patients

CCc1c2c(nc3ccc(O)cc13)-c1cc3c(c(=O)n1C2)COC(=O)[C@]3(O)CC [SN-38, 7-ethyl-10-hydroxycamptothecin]
antitumor activity higher than irinotecan [1]: 100-1,000 fold | Glucuronidation Ratio (SN-38G AUC/SN-38 AUC) [2, 6]: 6.52 | SN-38 AUC (mean) [2, 6]: 335.9 ng·h/mL | Glucuronidation Ratio (SN-38G AUC/SN-38 AUC) [2, 7]: 5.55 | SN-38 AUC (mean) [2, 7]: 458.4 ng·h/mL | Glucuronidation Ratio (SN-38G AUC/SN-38 AUC) [2, 8]: 3.59 | SN-38 AUC (mean) [2, 8]: 542.0 ng·h/mL

CCc1c2c(nc3ccc(O[C@@H]4O[C@H](C(=O)O)[C@@H](O)[C@H](O)[C@H]4O)cc13)-c1cc3c(c(=O)n1C2)COC(=O)[C@]3(O)CC [SN-38G, 10-O-glucuronyl-SN-38]
SN-38G AUC (mean) [2, 6]: 1954.2 ng·h/mL | SN-38G AUC (mean) [2, 7]: 1887.9 ng·h/mL | SN-38G AUC (mean) [2, 8]: 1819.1 ng·h/mL

CCc1c2c(nc3ccc(OC(=O)N4CCC(N5CCCCC5)CC4)cc13)-c1cc3c(c(=O)n1C2)COC(=O)[C@]3(O)CC [irinotecan, 7-ethyl-10-[4-(1-piperidino)-1-piperidino]carbonyloxycamptothecin]
patients with grade 3-4 diarrhea ([3]; early single agent trials, dose limiting): about one third | frequency of grade 3-4 diarrhea ([3]; three-weekly regimen): 19% | mortality rate ([3]; three-weekly single agent regimen): 1.6% | frequency of grade 3-4 diarrhea ([3]; weekly schedule): 36% | mortality rate ([3]; weekly single agent regimen): 5.3% | toxic death ([4]; neutropenia-related sepsis, day 11 of cycle 1, 7/7 genotype): One toxic death | frequency of grade 4 neutropenia ([4]; patients with 6/6 genotype (0/30)): 0% | frequency of grade 4 neutropenia ([4]; patients with 7/7 genotype (3/6)): 50% | cases of grade 4 neutropenia ([4]; patients with pretreatment bilirubin less than 0.6 mg/dl): No cases | objective responses ([5]; 60 patients assessable for response): 3 | patients achieving a partial response ([5]; colorectal and head and neck cancer, 6/7 genotype): Two | patients achieving a complete response ([5]; colorectal cancer, 6/6 genotype): One
